Patent US20150297619A1, “METHODS AND COMPOSITIONS FOR PRESERVING THE MUCOSAL BARRIER” (priority 2014, published 2015)

Tests used:
[1] = tested on: hemorrhagic shock; experiment: Hemorrhagic shock with enteral/IV/IP treatments: intestine, plasma and lung injury (Example 2); assay type: in vivo, rat
Description: Adult male Sprague Dawley rats (mean±standard deviation (SD) body weight 340±60 g, N=64, Harlan, Indianapolis, Ind.) were allowed food and water ad libitum prior to surgery. Rats were administered general anesthesia (xylazine, 4 mg/kg; ketamine 75 mg/kg IM) and remained anesthetized throughout the experiment. At the termination of experiments, rats were euthanized by infusion of B-Euthanasia IV (120 mg/kg). The femoral artery and vein were cannulated. Systolic, diastolic, heart rate, and mean arterial pressure (MAP) were recorded throughout the procedure using LabChart (AD Instruments, Dunedin, New Zealand).
Hemorrhagic Shock (HS) with Removal of Luminal Contents—Animals were grouped into no-HS (No-HS), HS with intestinal luminal contents flushed (HS-F), and HS without intestinal flush (HS-NF). No-HS animals were immediately sacrificed for tissue collection following cannulation. All other animals were subject to laparotomy before the intestine was exposed and gross morphology was photographically recorded. Enteral treatments were administered to the intestine before returning to the peritoneal cavity (Table 1). IV/IP injections were delivered following the intestinal injections.
Following the intestinal preparations, the animals were heparinized to minimize clotting in catheters and in shed blood samples (1 U/mL of calculated blood volume i.v.; assuming 6 mL blood volume per 100 g total body weight) before onset of hemorrhage. MAP was reduced to 30 mmHg by withdrawal of blood through the venous catheter (0.4 mL/min) with a 5 mL syringe. The initial 1 mL of blood drawn was collected, centrifuged (1000 g, 5 min), and the plasma was immediately frozen at […] for further analysis. The arterial pressure was monitored and adjusted by withdrawal/return of blood over the 90-min ischemic period. At the end of ischemia, the shed blood was returned to the animals (0.5 mL/min) plus 1 mL of saline (to replace the 1 mL of blood collected before shock).
Gross morphology images of the intestine were captured at the end of the reperfusion period. Post-HS blood was collected through the arterial catheter, spun (1000 g, 5 min), and the plasma was immediately frozen at […]. The animals were then euthanized and lung and jejunum specimen were snap frozen for homogenization or embedded in optimum cutting temperature (O.C.T.) (Saukura, Leiden, the Netherlands) for histological sectioning. Jejunum was chosen for analysis, as more intestinal hemorrhage is typically seen there than in the ileum in models of HS.
After hemorrhagic shock, bronchoalveolar lavage fluid (BALF) was collected by inserting an 18 gauge blunt needle into the left main bronchus of the left lung. The lunch was photographed to assess gross morphological damage. The images were blindly assessed for macroscopic lung damage. Scoring was as follows: 0, no visible lung damage and pink in color; 1, mostly pink in color with some dark red lesions starting to form around the central part of the lung near the trachea; 2, some pink color with more lesions forming and spreading throughout the lung; 3, dark red lesions through the majority of the lung surface; 4, complete lung damage in all parts of the organ surface.
To collect BALF fluid, saline (˜2.0 ml/lavage) was injected and recovered three times before centrifugation (1000 g, 5 min). Following the third wash, the lung was injected with O.C.T., embedded, and frozen. The total volume of recovered BALF fluid was measured and the fraction of saline recovered versus the amount injected was used to normalize all measurements.
Intestinal Hemorrhage—Segments of jejunum were mechanically homogenized by weight (10 ml per 1 g; 18,000 g, 20 min; stored at −80° C.) in 0.5% hexadecyltrimethyl-ammonium bromide (HTAB) in PBS (pH 6.0). Any luminal content present in the segment was included in the weighing and homogenization. […]

[2] = tested on: ischemic small intestine segments (jejunum to ileum); experiment: Ex vivo intestinal ischemia: transmural fluorescein transport across wall of flushed intestinal segments; set-up: species or system rat
From the text: Intestinal Ischemia—Since intestinal properties are non-homogenous, the transmural permeability was investigated over the entire length of the jejunum and ileum. Due to physical constraints of the small intestine anatomy, it is not feasible to simultaneously analyze permeability from multiple segments in vivo. Therefore, an ex vivo approach similar to previously published studies was designed to measure permeability along the length of the small intestine.
A midline incision was made to expose the intestine in anesthetized rats. The proximal end of the jejunum (approximately 5 cm distal from the ligament of Treitz) was cannulated with a female luer to barb tube connector (⅛″ inner diameter). The intestine was removed and placed in saline immediately before euthanasia. In order to focus the analysis on permeability of the intestinal wall during ischemia in the absence of luminal contents (including the digestive proteases or cytotoxic factors from food), the lumen of the intestine was flushed with 40 ml saline using pulsatile pressure. Visual examination confirmed all solid contents were removed. Next, the intestine was cut into eight equal length segments (˜8 cm) sequentially ordered from the proximal jejunum (position 1) to the distal ileum (position 8). Both ends of each segment were cannulated with Female Luer to Barb tube connectors (thus allowing entry and exit points from the intestinal lumen to be sealed completely), secured with 4-0 suture, and the exterior portion of one adaptor on each segment sealed with clay.
To determine the transmural permeability of the intestine, all 8 segments from each animal were filled with a low molecular weight tracer as a sensitive measure of early barrier breakdown prior to the initiation of ischemia, fluorescein (332 Da M.W., 20 μg/ml from 5 mg/ml stock in ethanol; 0.308 osm/L; Sigma-Aldrich, St. Louis, Mo.) mixed with saline, glucose (100 mg/ml in saline; 0.550 moles/L; 0.863 osm/L, Sigma-Aldrich), the non-metabolizing glucose analog mannitol (100 mg/ml in saline; 0.550 moles/L; 0.863 osm/L), the serine protease inhibitor tranexamic acid (31 mg/ml in saline; 0.200 moles/L; 0.508 osm/L, Sigma-Aldrich), the MMP inhibitor doxycycline hyclate (1 mg/ml in saline; 1.955×10^−3 moles/L; 0.310 osm/L, Sigma-Aldrich), or the MMP inhibitor GM 6001 [38] (1 μg/ml in saline from 1 mg/ml stock in DMSO; 2.57×10^−6 moles/L; 0.308 osm/L, Millipore, Billerica, Md.). […]
Sealed segments were rinsed in saline, individually placed in 15 ml conical tubes containing 6 ml saline, and incubated at 37° C. for 2 hours to simulate ischemic conditions. […] Plates were read in a plate reader (FilterMax F-5 Multi-mode, Molecular Devices, Sunnyvale, Calif.) for concentration of fluorescein (excitation 494/emission 521) to measure diffusion across the wall of the intestine.
Permeability Analysis—To determine the fluorescein transport across the ischemic intestinal wall, the fluorescence at time 0 was subtracted from fluorescence values at later time points to correct for background, and fluorescence values were corrected to account for the volume reduction due to sampling during the experiment. The RFU measurements were converted to equivalent moles by using the linear relationship between concentration and fluorescein fluorescence (not shown, R^2=0.999). The transport of fluorescein across the wall (measured in moles, per time) was computed as the change in fluorescence over a 30 min interval divided by 30 min.

Row | SMILES | MPO activity of intestinal homogenates ([1]; after HS) | gross morphology of the intestine (microhemorrhages) ([1]; after HS) | macroscopic lung injury (lung injury score) ([1]; after HS) | plasma MMP-9 and neutrophil derived pro-MMP-9 activity ([1]; post-HS plasma, gel zymography) | fluorescein transport across the wall of the intestine ([2]; ex vivo, treatment in lumen, two-hour ischemic period) | lung VE-cadherin levels ([1]; after HS, immunoblot) | lung VEGFR-2 levels ([1]; after HS, immunoblot) | fluorescein transport rates, 30-60 min and 60-90 min periods ([2]; ex vivo ischemia, inhibitor in lumen without glucose, vs saline)
1 | O=C[C@H](O)[C@@H](O)[C@H](O)[C@H](O)CO [Glucose, glucose] | tended to be lower | microhemorrhages most severely | trend in reduction | significantly more activity compared to HS+SAL | drastically reduced |  |  | 
2 | NC[C@H]1CC[C@H](C(=O)O)CC1 [tranexamic acid] | tended to be lower | fewer regions with microhemorrhages |  |  |  | significantly reduced | maintained | significantly decreased compared to the saline treated intestines
